Results: patent publication US20260345488A1, “PHARMACEUTICAL FORMULATIONS” (Gelteq Limited, priority 2023, published 2026)

Assay: not given
Details: classification on solubility and permeability; cited from earlier work
In the case of O=C(O)Cc1ccccc1Nc1c(Cl)cccc1Cl [Diclofenac], the BCS class is listed as “class II”.
In the case of NS(=O)(=O)c1cc2c(cc1Cl)NCNS2(=O)=O [Hydrochlorothiazide], the BCS class is given as “class II”.
For COCCc1ccc(OCC(O)CNC(C)C)cc1 (centres unmarked) [Metoprolol], the BCS class is given as “Class I”.
In the case of COc1ccc2cc([C@H](C)C(=O)O)ccc2c1 [Naproxen], the BCS class is given as “Class II”.
In the case of c1ccc(-c2ccc(C(c3ccccc3)n3ccnc3)cc2)cc1 (centres unmarked) [Bifonazole], the BCS class is given as “Class IV”.
For CN/C(=N/CCSCc1nc[nH]c1C)NC#N [Cimetidine], the BCS class is listed as “Class III”.

Assay: Compatibility of pH adjustors with the formulation
Format: physicochemical
Details: in ibuprofen gel formulation
Method: Hydrochloric acid and citric acid were tested as pH adjustors. […] As a consequence, it was selected as the preferred pH adjusting agent. Further details of the ibuprofen gels of the invention are set out in Example 1.
With O=C(O)CC(O)(CC(=O)O)C(=O)O [Citric acid] the “compatibility / effect as pH adjustor” value was “changed the pH significantly”.
In the case of Cl [Hydrochloric acid], the “compatibility / effect as pH adjustor” value is reported as “precipitated and was not compatible with the formulation”.
